Assay results from PubChem BioAssay AID1963960 (Molecular Pharmacology Branch, DTP, NCI, 2024).

System: MDA-MB-468 spheroids with HUVEC/MSC, viability
Experiment: Anticancer human tumor MDA-MB-468 cell line growth inhibition [PI3K];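 also: spheroids exposed to agents for seven days before readout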;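 as to viability, T/C: 100% = DMSO vehicle control viability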
Details: for viability, T/C: stronger effect = lower value
In short: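 Tumor cells were combined with HUVEC and MSCs into spheroids, then dosed with PI3K-inhibitor combinations over half-log ranges capped near clinical Cmax or 10 microM.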

[1] = curve of first compound, second compound 0.0316 µM
[2] = curve of first compound, second compound 0.1 µM
[3] = curve of first compound, second compound 0.316 µM
[4] = curve of first compound, second compound 1 µM
[5] = curve of first compound, second compound 3.16 µM
[6] = curve of first compound, second compound 10 µM
[7] = second compound 0.0316 µM, first compound 0.0316 µM
[8] = second compound 0.0316 µM, first compound 0.1 µM
[9] = second compound 0.0316 µM, first compound 0.316 µM
[10] = second compound 0.0316 µM, first compound 1 µM
[11] = second compound 0.0316 µM, first compound 3.16 µM
[12] = second compound 0.0316 µM, first compound 10 µM
[13] = second compound 0.1 µM, first compound 0.0316 µM
[14] = second compound 0.1 µM, first compound 0.1 µM
[15] = second compound 0.1 µM, first compound 0.316 µM
[16] = second compound 0.1 µM, first compound 1 µM
[17] = second compound 0.1 µM, first compound 3.16 µM
[18] = second compound 0.1 µM, first compound 10 µM
[19] = second compound 0.316 µM, first compound 0.0316 µM
[20] = second compound 0.316 µM, first compound 0.1 µM
[21] = second compound 0.316 µM, first compound 0.316 µM
[22] = second compound 0.316 µM, first compound 1 µM
[23] = second compound 0.316 µM, first compound 3.16 µM
[24] = second compound 0.316 µM, first compound 10 µM
[25] = second compound 1 µM, first compound 0.0316 µM
[26] = second compound 1 µM, first compound 0.1 µM
[27] = second compound 1 µM, first compound 0.316 µM
[28] = second compound 1 µM, first compound 1 µM
[29] = second compound 1 µM, first compound 3.16 µM
[30] = second compound 1 µM, first compound 10 µM
[31] = second compound 3.16 µM, first compound 0.0316 µM
[32] = second compound 3.16 µM, first compound 0.1 µM
[33] = second compound 3.16 µM, first compound 0.316 µM
[34] = second compound 3.16 µM, first compound 1 µM
[35] = second compound 3.16 µM, first compound 3.16 µM
[36] = second compound 3.16 µM, first compound 10 µM
[37] = second compound 10 µM, first compound 0.0316 µM
[38] = second compound 10 µM, first compound 0.1 µM
[39] = second compound 10 µM, first compound 0.316 µM
[40] = second compound 10 µM, first compound 1 µM
[41] = second compound 10 µM, first compound 3.16 µM
[42] = second compound 10 µM, first compound 10 µM

Cn1ncc(Cl)c1-c1cc(C(=O)NC(CN)Cc2cccc(F)c2)sc1Cl (configuration not stated) + CC(Nc1ncnc2nc[nH]c12)c1cc2cccc(Cl)c2c(=O)n1-c1ccccc1
IC50 [1]: 293 nM | IC50 [2]: 338 nM | IC50 [3]: 331 nM | IC50 [4]: 242 nM | IC50 [5]: 44.2 nM | IC50 [6]: < 31.6 nM | viability, T/C [7]: 83.2% | viability, T/C [8]: 73.1% | viability, T/C [9]: 45.6% | viability, T/C [10]: 32.3% | viability, T/C [11]: 26% | viability, T/C [12]: 17.7% | viability, T/C [13]: 84.6% | viability, T/C [14]: 65.5% | viability, T/C [15]: 50.3% | viability, T/C [16]: 35.9% | viability, T/C [17]: 29.7% | viability, T/C [18]: 16.1% | viability, T/C [19]: 68.7% | viability, T/C [20]: 63.4% | viability, T/C [21]: 51.1% | viability, T/C [22]: 33.9% | viability, T/C [23]: 29.1% | viability, T/C [24]: 18.6% | viability, T/C [25]: 58.4% | viability, T/C [26]: 60.1% | viability, T/C [27]: 47% | viability, T/C [28]: 32.9% | viability, T/C [29]: 27.8% | viability, T/C [30]: 17.9% | viability, T/C [31]: 51.7% | viability, T/C [32]: 45.4% | viability, T/C [33]: 40.8% | viability, T/C [34]: 32.6% | viability, T/C [35]: 25.9% | viability, T/C [36]: 20.2% | viability, T/C [37]: 40.4% | viability, T/C [38]: 41.6% | viability, T/C [39]: 36.3% | viability, T/C [40]: 28% | viability, T/C [41]: 23.8% | viability, T/C [42]: 15.5%

CC1(C)CCC(Nc2ncc(C(F)(F)F)c(-c3c[nH]c4c(P(C)(C)=O)c(C#N)ccc34)n2)CN1 (configuration not stated) + Cc1nc(NC(=O)N2CCCC2C(N)=O)sc1-c1ccnc(C(C)(C)C(F)(F)F)c1
IC50 [1]: < 31.6 nM | IC50 [2]: < 31.6 nM | IC50 [3]: < 31.6 nM | IC50 [4]: < 31.6 nM | IC50 [5]: < 31.6 nM | IC50 [6]: < 31.6 nM | viability, T/C [7]: 12.9% | viability, T/C [8]: 13.4% | viability, T/C [9]: 10.2% | viability, T/C [10]: 12.3% | viability, T/C [11]: 10.3% | viability, T/C [12]: 1.66% | viability, T/C [13]: 13.4% | viability, T/C [14]: 13.6% | viability, T/C [15]: 11% | viability, T/C [16]: 11.7% | viability, T/C [17]: 9.67% | viability, T/C [18]: 1.49% | viability, T/C [19]: 16.6% | viability, T/C [20]: 10.6% | viability, T/C [21]: 9.57% | viability, T/C [22]: 11.6% | viability, T/C [23]: 9.4% | viability, T/C [24]: 1.34% | viability, T/C [25]: 13.8% | viability, T/C [26]: 10.9% | viability, T/C [27]: 9.4% | viability, T/C [28]: 10.7% | viability, T/C [29]: 7.46% | viability, T/C [30]: 1.27% | viability, T/C [31]: 15.4% | viability, T/C [32]: 10.6% | viability, T/C [33]: 9.84% | viability, T/C [34]: 9.67% | viability, T/C [35]: 5.93% | viability, T/C [36]: 1.32% | viability, T/C [37]: 11% | viability, T/C [38]: 7.92% | viability, T/C [39]: 8.97% | viability, T/C [40]: 6.88% | viability, T/C [41]: 4.2% | viability, T/C [42]: 0.98%

CC(C)n1nc(-c2ccc3oc(N)nc3c2)c2c(N)ncnc21
viability, T/C (compound 0.000316 µM): 101% [middle of 4 runs] | viability, T/C (compound 0.00316 µM): 93% [middle of 4 runs] | viability, T/C (compound 0.01 µM): 81.4% [middle of 4 runs] | viability, T/C (compound 0.0316 µM): 64.6% [middle of 4 runs] | viability, T/C (compound 0.1 µM): 19.3% [middle of 4 runs] | IC50 (curve of compound): 44.4 nM [middle of 4 runs]

C#Cc1c(F)ccc2cc(O)cc(-c3ncc4c(N5CC6CCC(C5)N6)nc(OCC56CCCN5CC(F)C6)nc4c3F)c12 (configuration not stated) + Cc1nc(NC(=O)N2CCCC2C(N)=O)sc1-c1ccnc(C(C)(C)C(F)(F)F)c1
IC50 [1]: > 10000 nM | IC50 [2]: 7360 nM | IC50 [3]: 5640 nM | IC50 [4]: 3090 nM | IC50 [5]: 960 nM | IC50 [6]: < 31.6 nM | viability, T/C [7]: 83.2% | viability, T/C [8]: 84.4% | viability, T/C [9]: 80.2% | viability, T/C [10]: 106% | viability, T/C [11]: 100% | viability, T/C [12]: 52.3% | viability, T/C [13]: 91.1% | viability, T/C [14]: 89.1% | viability, T/C [15]: 88.9% | viability, T/C [16]: 101% | viability, T/C [17]: 79.9% | viability, T/C [18]: 39.2% | viability, T/C [19]: 92.4% | viability, T/C [20]: 85.6% | viability, T/C [21]: 69.9% | viability, T/C [22]: 80.9% | viability, T/C [23]: 75.6% | viability, T/C [24]: 24.7% | viability, T/C [25]: 92.4% | viability, T/C [26]: 81.8% | viability, T/C [27]: 71.8% | viability, T/C [28]: 83.3% | viability, T/C [29]: 49.4% | viability, T/C [30]: 15.8% | viability, T/C [31]: 80.5% | viability, T/C [32]: 69.3% | viability, T/C [33]: 53.4% | viability, T/C [34]: 53.4% | viability, T/C [35]: 35.4% | viability, T/C [36]: 3.3% | viability, T/C [37]: 42.2% | viability, T/C [38]: 26.6% | viability, T/C [39]: 22.3% | viability, T/C [40]: 18.9% | viability, T/C [41]: 7.98% | viability, T/C [42]: 0.65%
